System: mouse tongue
Assay: In vivo biostability / mucoadhesiveness on mouse tongue
Set-up: species or system ICR mice
Settings: after 60 minutes, high salivary flow; FIG. 19
Method: Eight-week-old ICR mice were anesthetized with 100mg/kg of ketamine and 16.7 mg/kg of xylazine cocktail. 10 mg of the oral patch was applied to the tongue. 0.2 mg/kg of Pilocarpine was administered intraperitoneally to stimulate salivation. Tongue tissues were harvested at 30 and 60 minutes post-injection for SEM and fluorescence imaging.

## unencapsulated FITC-BSA: FITC-labeled bovine serum albumin, not loaded in a patch
  retention of FITC-BSA on the tongue surface: completely washed away

Reference: patent US20250381133A1, “ARTICLE IN THE FORM OF EDIBLE SHEET” (TECOZYME INC, priority 2020, published 2025)
